Reference: ChEMBL document CHEMBL6153046, “Semisynthesis of Glycosmis pentaphylla Alkaloid Derivatives: Pyranoacridone-Hydroxamic Acid Cytotoxic Conjugates with HDAC and Topoisomerase II α Dual Inhibitory Activity” (J Nat Prod, 2025)
Activity calls are given as the source filed them. The calls are words filed in the database; no cut-off is given here.

Legend:
[1] = target: DNA topoisomerase 2-alpha (Homo sapiens) (UniProt P11388); assay: Inhibition of human topoisomerase II alpha using kinetoplast DNA as substrate incubated for 30 mins; conditions: dose 10-100 µM
MCF7 = assay: Cytotoxicity against human MCF-7 cells assessed as cell viability incubated for 96 hrs by MTT assay; assay type: functional, cell-based; conditions: MCF7, 96 h
SCC-25 [2] = assay: Cytotoxicity against human SCC-25 cells assessed as cell viability incubated for 96 hrs by MTT assay; assay type: functional, cell-based; conditions: SCC-25, 96 h
Calu-3 = assay: Cytotoxicity against human CALU-3 cells assessed as cell viability incubated for 96 hrs by MTT assay; assay type: functional, cell-based; conditions: Calu-3, 96 h
[3] = Cytotoxicity against human Oral epithelial cell assessed as cell viability incubated for 96 hrs by MTT assay; conditions: for IC50 at 96 h: human, oral epithelial cells; for IC50: oral epithelial cell
[4] = target: DNA topoisomerase 2-alpha (Homo sapiens) (UniProt P11388); assay: Inhibition of human topoisomerase II alpha using kinetoplast DNA as substrate at 10 microM incubated for 30 mins
SCC-25 [5] = assay: Induction of apoptosis in human SCC-25 cells assessed as early apoptotic cells at 1 uM incubated for 48 hrs by Annexin V-Alexa fluor 488 and propidium iodide staining based flow cytometry relative to control; assay type: functional
SCC-25 [6] = assay: Induction of apoptosis in human SCC-25 cells assessed as viable at 10 uM incubated for 48 hrs by Annexin V-Alexa fluor 488 and propidium iodide staining based flow cytometry relative to control; assay type: functional
SCC-25 [7] = assay: Induction of apoptosis in human SCC-25 cells assessed as late apoptotic cells at 1 uM incubated for 48 hrs by Annexin V-Alexa fluor 488 and propidium iodide staining based flow cytometry relative to control; assay type: functional
SCC-25 [8] = assay: Induction of apoptosis in human SCC-25 cells assessed as early apoptotic cells at 10 uM incubated for 48 hrs by Annexin V-Alexa fluor 488 and propidium iodide staining based flow cytometry relative to control; assay type: functional
SCC-25 [9] = assay: Induction of apoptosis in human SCC-25 cells assessed as early apoptotic cells at 0.1 uM incubated for 48 hrs by Annexin V-Alexa fluor 488 and propidium iodide staining based flow cytometry relative to control; assay type: functional
SCC-25 [10] = assay: Induction of apoptosis in human SCC-25 cells assessed as viable at 0.1 uM incubated for 48 hrs by Annexin V-Alexa fluor 488 and propidium iodide staining based flow cytometry relative to control; assay type: functional
SCC-25 [11] = assay: Induction of apoptosis in human SCC-25 cells assessed as necrotic cells at 1 uM incubated for 48 hrs by Annexin V-Alexa fluor 488 and propidium iodide staining based flow cytometry relative to control; assay type: functional
SCC-25 [12] = assay: Induction of apoptosis in human SCC-25 cells assessed as necrotic cells at 0.1 uM incubated for 48 hrs by Annexin V-Alexa fluor 488 and propidium iodide staining based flow cytometry relative to control; assay type: functional
SCC-25 [13] = assay: Induction of apoptosis in human SCC-25 cells assessed as viable at 1 uM incubated for 48 hrs by Annexin V-Alexa fluor 488 and propidium iodide staining based flow cytometry relative to control; assay type: functional
SCC-25 [14] = assay: Induction of apoptosis in human SCC-25 cells assessed as late apoptotic cells at 10 uM incubated for 48 hrs by Annexin V-Alexa fluor 488 and propidium iodide staining based flow cytometry relative to control; assay type: functional
SCC-25 [15] = assay: Induction of apoptosis in human SCC-25 cells assessed as necrotic cells at 10 uM incubated for 48 hrs by Annexin V-Alexa fluor 488 and propidium iodide staining based flow cytometry relative to control; assay type: functional
SCC-25 [16] = assay: Induction of apoptosis in human SCC-25 cells assessed as late apoptotic cells at 0.1 uM incubated for 48 hrs by Annexin V-Alexa fluor 488 and propidium iodide staining based flow cytometry relative to control; assay type: functional
SCC-25 [17] = assay: Induction of apoptosis in human SCC-25 cells assessed as necrotic cells at 200 uM incubated for 48 hrs by Annexin V-Alexa fluor 488 and propidium iodide staining based flow cytometry relative to control; assay type: functional
SCC-25 [18] = assay: Induction of apoptosis in human SCC-25 cells assessed as early apoptotic cells at 200 uM incubated for 48 hrs by Annexin V-Alexa fluor 488 and propidium iodide staining based flow cytometry relative to control; assay type: functional
SCC-25 [19] = assay: Induction of apoptosis in human SCC-25 cells assessed as late apoptotic cells at 200 uM incubated for 48 hrs by Annexin V-Alexa fluor 488 and propidium iodide staining based flow cytometry relative to control; assay type: functional
[20] = target: DNA topoisomerase 2-alpha (Homo sapiens) (UniProt P11388); conditions: dose 2.0 mM, time 30.0 min
SCC-25 [21] = assay: Induction of apoptosis in human SCC-25 cells assessed as viable at 200 uM incubated for 48 hrs by Annexin V-Alexa fluor 488 and propidium iodide staining based flow cytometry relative to control; assay type: functional

Sequence of DNA topoisomerase 2-alpha (Homo sapiens) (P11388 whole entry): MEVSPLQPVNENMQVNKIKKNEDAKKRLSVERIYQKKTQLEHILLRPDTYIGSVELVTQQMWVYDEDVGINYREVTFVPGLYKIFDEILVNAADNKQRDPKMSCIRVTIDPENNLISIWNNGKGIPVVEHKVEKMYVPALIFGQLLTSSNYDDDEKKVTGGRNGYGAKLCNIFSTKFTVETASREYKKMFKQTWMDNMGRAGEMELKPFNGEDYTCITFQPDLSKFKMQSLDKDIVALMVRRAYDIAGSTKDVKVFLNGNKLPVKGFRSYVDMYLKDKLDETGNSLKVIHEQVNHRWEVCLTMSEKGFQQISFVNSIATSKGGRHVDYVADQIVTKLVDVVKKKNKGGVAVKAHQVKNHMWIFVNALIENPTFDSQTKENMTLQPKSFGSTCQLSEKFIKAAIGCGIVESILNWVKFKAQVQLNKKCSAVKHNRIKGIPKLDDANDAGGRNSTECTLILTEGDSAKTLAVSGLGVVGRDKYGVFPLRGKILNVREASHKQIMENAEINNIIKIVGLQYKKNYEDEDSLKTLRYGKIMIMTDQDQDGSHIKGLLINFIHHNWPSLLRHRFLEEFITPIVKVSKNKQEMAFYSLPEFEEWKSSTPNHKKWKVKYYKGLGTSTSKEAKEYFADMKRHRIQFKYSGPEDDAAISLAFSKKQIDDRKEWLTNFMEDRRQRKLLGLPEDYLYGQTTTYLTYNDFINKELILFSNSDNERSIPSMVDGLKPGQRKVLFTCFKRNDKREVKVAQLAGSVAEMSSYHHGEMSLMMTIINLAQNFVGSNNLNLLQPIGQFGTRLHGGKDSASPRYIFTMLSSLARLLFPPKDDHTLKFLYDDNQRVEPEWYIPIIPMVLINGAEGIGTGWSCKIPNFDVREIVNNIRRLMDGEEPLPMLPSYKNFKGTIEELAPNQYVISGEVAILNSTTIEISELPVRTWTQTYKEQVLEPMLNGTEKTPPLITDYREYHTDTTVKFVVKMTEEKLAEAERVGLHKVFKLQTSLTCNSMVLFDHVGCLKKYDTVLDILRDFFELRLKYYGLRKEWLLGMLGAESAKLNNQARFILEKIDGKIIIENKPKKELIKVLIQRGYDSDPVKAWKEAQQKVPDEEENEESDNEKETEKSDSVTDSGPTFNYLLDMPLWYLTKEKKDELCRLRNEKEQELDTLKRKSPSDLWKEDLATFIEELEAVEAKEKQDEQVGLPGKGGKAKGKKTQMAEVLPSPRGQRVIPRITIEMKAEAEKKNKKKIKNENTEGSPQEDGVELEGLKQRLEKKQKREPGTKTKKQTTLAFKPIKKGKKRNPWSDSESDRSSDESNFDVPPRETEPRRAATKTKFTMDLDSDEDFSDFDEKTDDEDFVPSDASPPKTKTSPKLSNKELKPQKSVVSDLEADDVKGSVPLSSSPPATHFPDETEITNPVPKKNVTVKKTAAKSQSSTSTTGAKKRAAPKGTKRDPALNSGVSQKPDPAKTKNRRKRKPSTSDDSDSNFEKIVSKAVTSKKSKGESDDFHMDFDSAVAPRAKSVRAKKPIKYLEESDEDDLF

Row | Structure (SMILES) | inhibition [1] | IC50 (MCF7) [µM] | IC50 (SCC-25 [2]) [µM] | IC50 (Calu-3) [µM] | IC50 at 96 h [3] [µM] | IC50 [3] | further results
1 | Cn1c2ccccc2c(=O)c2c(OCCCCCCC(=O)NO)cc3c(c21)C=CC(C)(C)O3 | Dose-dependent-effect | 5.7 | 0.7 | 10.6 | > 100 | – | –
2 | Cn1c2ccccc2c(=O)c2c(OCc3cccc(C(=O)NO)c3)cc3c(c21)C=CC(C)(C)O3 | – | 6.62 | 23.1 | 6.53 | > 100 | – | inhibition [4]: Active
3 | COc1cc2c(c3c1c(=O)c1ccccc1n3Cc1ccc(C(=O)NO)cc1)C=CC(C)(C)O2 | Dose-dependent-effect | 19.7 | 7.7 | 14.2 | 82.5 | – | –
4 | COc1cc2c(c3c1c(=O)c1ccccc1n3CCCCC(=O)NO)C=CC(C)(C)O2 | – | > 100 | > 100 | 29.5 | – | Not_determined | –
5 | COc1cc2c(c3c1c(=O)c1ccccc1n3CC(=O)NO)C=CC(C)(C)O2 | – | > 100 | 41.5 | 61.8 | – | Not_determined | –
6 | Cn1c2ccccc2c(=O)c2c(O)cc3c(c21)C=CC(C)(C)O3 [NORACRONYCINE] | – | 187 | 14.1 | 97.5 | – | Not_determined | –
7 | Cn1c2ccccc2c(=O)c2c(OCCCCC(=O)NO)cc3c(c21)C=CC(C)(C)O3 | Dose-dependent-effect | 1.03 | 0.35 | 1.51 | > 100 | – | Activity (SCC-25 [5]): 1.13%; Activity (SCC-25 [6]): 13.7%; Activity (SCC-25 [7]): 4.35%; Activity (SCC-25 [8]): 0.15%; Activity (SCC-25 [9]): 0.63%; Activity (SCC-25 [10]): 96.1%; Activity (SCC-25 [11]): 7.49%; Activity (SCC-25 [12]): 1.96%; Activity (SCC-25 [13]): 87%; Activity (SCC-25 [14]): 53.1%; Activity (SCC-25 [15]): 33.1%; Activity (SCC-25 [16]): 1.35%
8 | COc1cc2c(c3[nH]c4ccccc4c(=O)c13)C=CC(C)(C)O2 | – | 191 | 21.2 | 13.9 | – | Not_determined | –
9 | Cn1c2ccccc2c(=O)c2c(OCCCCCC(=O)NO)cc3c(c21)C=CC(C)(C)O3 | Dose-dependent-effect | 8.3 | 9.7 | 16.1 | 24.5 | – | –
10 | COc1cc2c(c3c1c(=O)c1ccccc1n3CCCCCCC(=O)NO)C=CC(C)(C)O2 | Dose-dependent-effect | 6.12 | 1.11 | 4.37 | 60.2 | – | –
11 | Cn1c2ccccc2c(=O)c2c(OCC(=O)NO)cc3c(c21)C=CC(C)(C)O3 | Dose-dependent-effect | 10.9 | 1.2 | 4 | > 100 | – | –
12 | Cn1c2ccccc2c(=O)c2c(OCc3ccc(C(=O)NO)cc3)cc3c(c21)C=CC(C)(C)O3 | – | 4.71 | 1.66 | 1.81 | > 100 | – | –
13 | COc1cc([C@@H]2c3cc4c(cc3[C@@H](O[C@@H]3O[C@@H]5CO[C@@H](C)O[C@H]5[C@H](O)[C@H]3O)[C@H]3COC(=O)[C@H]23)OCO4)cc(OC)c1O [ETOPOSIDE] | – | 55.6 | 3.4 | 0.6 | – | Not_determined | Activity (SCC-25 [17]): 13.3%; Activity (SCC-25 [18]): 2.76%; Activity (SCC-25 [19]): 17.2%; inhibition [20]: Active; Activity (SCC-25 [21]): 65.5%
14 | COc1cc2c(c3c1c(=O)c1ccccc1n3CCCC(=O)NO)C=CC(C)(C)O2 | – | > 100 | 36 | 36.8 | – | Not_determined | –
15 | COc1cc2c(c3c1c(=O)c1ccccc1n3Cc1cccc(C(=O)NO)c1)C=CC(C)(C)O2 | – | 80.1 | 39.3 | 42 | – | Not_determined | –
16 | Cn1c2ccccc2c(=O)c2c(OCCCC(=O)NO)cc3c(c21)C=CC(C)(C)O3 | Dose-dependent-effect | 2.8 | 2.2 | 3.2 | 27 | – | –
17 | COc1cc2c(c3c1c(=O)c1ccccc1n3CCCCCC(=O)NO)C=CC(C)(C)O2 | – | 40.8 | 14.8 | 18 | > 100 | – | –
